Laboratory results published in ChEMBL document CHEMBL1201862, “PubChem BioAssay data set” (2004).
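Results reflect a 48-hour exposure of cells in 96-well plates to compound at five concentrations. GI50: concentration for 50% inhibition of growth.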 Activity calls are given as the source filed them. Cut-off read from the data, not from the text of the source: active = GI50 up to about 1.1 µM and inactive = higher.

What was measured:
Assay in all cases: NCI-60 cell line screen, 48 h
ACHN = system: ACHN
CAKI-1 = system: CAKI-1
EKVX = system: EKVX
HCC 2998 = system: HCC 2998
HCT-116 = system: HCT-116
HL-60 = system: HL-60
IGROV-1 = system: IGROV-1
LOX IMVI = system: LOX IMVI
Malme-3M = system: Malme-3M
NCI-H226 = system: NCI-H226
OVCAR-3 = system: OVCAR-3
OVCAR-4 = system: OVCAR-4
RPMI-8226 = system: RPMI-8226
RXF 393 = system: RXF 393
SF-268 = system: SF-268
SN12C = system: SN12C
UO-31 = system: UO-31
SK-OV-3 = system: SK-OV-3

Measured: GI50

Cc1cc(C)cc(NC(N)=S)c1
inactive: ACHN > 100 µM | CAKI-1 > 100 µM | EKVX > 100 µM | HCC 2998 > 100 µM | HCT-116 35.5 µM | HL-60 30.8 µM | IGROV-1 > 100 µM | LOX IMVI 29.1 µM | Malme-3M > 100 µM | NCI-H226 > 100 µM | OVCAR-3 > 100 µM | OVCAR-4 > 100 µM | RPMI-8226 31.1 µM | RXF 393 20.2 µM | SF-268 53.7 µM | SN12C > 100 µM | UO-31 > 100 µM

Cc1c2c(c(C)c3c1[nH]c1ccccc13)CN(C)CC2
inactive: ACHN 18.2 µM | CAKI-1 13.2 µM | HCC 2998 16.7 µM | HCT-116 16 µM | HL-60 52 µM | IGROV-1 26.8 µM | LOX IMVI 15.5 µM | Malme-3M 16.7 µM | NCI-H226 19.1 µM | OVCAR-3 18.7 µM | OVCAR-4 23.4 µM | RPMI-8226 26.4 µM | RXF 393 17.6 µM | SF-268 20.3 µM | SK-OV-3 25.5 µM | SN12C 20.6 µM | UO-31 19.5 µM

CCOC(=O)C(Cc1ccc([N+](=O)[O-])cc1)NC(=O)CC1c2ccccc2-c2ccccc21 (centres undefined)
inactive: ACHN 20.7 µM | EKVX > 100 µM | HCC 2998 > 100 µM | HCT-116 > 100 µM | HL-60 > 100 µM | IGROV-1 > 100 µM | LOX IMVI > 100 µM | Malme-3M 20.6 µM | NCI-H226 > 100 µM | OVCAR-3 > 100 µM | OVCAR-4 55 µM | RPMI-8226 > 100 µM | RXF 393 18 µM | SF-268 50.7 µM | SK-OV-3 78.7 µM | SN12C 67.8 µM | UO-31 > 100 µM

CC1CN(c2ccc(Cl)cc2)CC(C)(C)OC(=O)O1 (centres undefined)
inactive: ACHN > 100 µM | CAKI-1 > 100 µM | EKVX > 100 µM | HCC 2998 > 100 µM | HCT-116 > 100 µM | HL-60 > 100 µM | IGROV-1 > 100 µM | LOX IMVI > 100 µM | Malme-3M > 100 µM | NCI-H226 > 100 µM | OVCAR-3 > 100 µM | OVCAR-4 > 100 µM | RPMI-8226 > 100 µM | RXF 393 > 100 µM | SF-268 > 100 µM | SK-OV-3 > 100 µM | SN12C > 100 µM | UO-31 > 100 µM
